Results from US20240060146A1, “CHEMICAL SUBSTANCE EVALUATION SYSTEM USING MULTICOLOR LIGHT-EMITTING CELLS” (TOHOKU UNIVERSITY, priority 2020, published 2024).
Counter-ions that a name gives are not always drawn.

What was measured:
Type in all cases: cell-based
2H4 cells [1] = assay: Evaluation of combination of IL-2 Luc LTT and IL-2 Luc assay; design: key: Positive (Pos): If the result is either LCT in the IL-2 Luc LTT or S in the IL-2 Luc assay, or both, the chemical substance is determined to be an immunosuppressive substance.; Negative (Neg): In the case other than the above, the chemical substance is determined to be a non-immunosuppressive substance; conditions: LCT in IL-2 Luc LTT or S in IL-2 Luc assay = Pos
Description: Positive (Pos): If the result is either LCT in the IL-2 Luc LTT or S in the IL-2 Luc assay, or both, the chemical substance is determined to be an immunosuppressive substance. Negative (Neg): In the case other than the above, the chemical substance is determined to be a non-immunosuppressive substance.

2H4 cells [2] = assay: IL-2 Luc assay: evaluation of chemical substance in 2H4 cells; conditions: for IL-2 Luc Assay: 1 h chemical, then PMA/ionomycin, luminescence after six hours, class from Min % suppression of nIL2LA
Description: (§1) 2H4 cells were established from Jurkat cells according to the method described in PTL 1. First, for the preparation of 2H4 cells, a plasmid having SLG introduced downstream of the IL-2 promoter, a plasmid having SLR introduced downstream of the G3PDH promoter, and a plasmid having SLO introduced downstream of the INF-γ promoter were prepared as internal standards. These plasmids contained a resistance gene for hygromycin B, puromycin, and neomycin downstream of SLG, SLR, and SLO, respectively. The conditions for drug selection after transfection of the host Jurkat cells were as follows: in the primary selection, the cells were cultured for 1 week in the presence of a drug. In the secondary selection culture, the cells that survived in the primary selection culture were seeded in a 96-well plate at 1 cell/well or 200 cells/well, and cultured for 2 weeks under the same drug conditions. After the secondary selection culture, the cells were subjected to clone selection from the two points of signal intensity and signal induction by drug treatment. The G3PDH promoter SLR was first introduced to establish monochromatic stable cell line Jurkat: G3PDH-SLR #14D1 cells. These cells were used as the parent cell line to introduce the INF-γ promoter SLO, thereby establishing bichromatic stable cell line Jurkat: INFγ-SLO/G3PDH-SLR #2B12 cells. Subsequently, the obtained cells were used as a parent cell line to introduce the IL-2 promoter SLG, thereby establishing trichromatic stable cell line Jurkat IL-2-SLG/INFγ-SLO/G3PDH-SLR #2H4 cells.
(§2) % suppression={(nIL2LA in 2H4 cells untreated with a chemical substance)−(nIL2LA in 2H4 cells treated with a chemical substance)}×100/(nIL2LA in 2H4 cells untreated with a chemical substance) ---(1) Inh-GAPLA=(GAPLA in 2H4 cells treated with a chemical substance)/(GAPLA in 2H4 cells untreated with a chemical substance) ---(2)
The chemical substances listed in Table 1 were evaluated using 2H4 cells. 2H4 cells were seeded in a 96-well plate at 2×10^5 cells/50 μl/well and treated with each chemical substance for 1 hour, followed by incubating the cells with 25 nM PMA and 1 µM ionomycin […]. After six hours from the treatment with PMA and ionomycin, Tripluc: Assay Reagent (manufactured by Toyobo Co., Ltd.) was added, and the amount of luminescence was measured with a Phelios microplate luminometer (manufactured by Atto Corporation). For control, 2H4 cells untreated with a chemical substance were also examined in the same manner. The amount of luminescence of SLG luciferase activity (IL2LA), SLR luciferase activity (GAPLA), and SLO luciferase activity (IFNLA) was measured, and IL-2LA and IFNLA were each normalized by GAPLA and determined to be nIL2LA and nIFNLA, respectively. Thereafter, for the concentration of each chemical substance, the value of suppression was calculated according to formula (1) above, and the chemical substances were evaluated by using their minimum value (Min suppression).

2H4 cells [3] = assay: IL-2 Luc LTT: evaluation of chemical substance in 2H4 cells; conditions: for IL-2 Luc LTT: 1 h chemical, then 25 nM PMA and 1 μM ionomycin 24 h, class from Min % suppression (nIL2LA) and Min Inh-GAPLA
Description: as §1
The chemical substances listed in Table 1 were evaluated using 2H4 cells. 2H4 cells were seeded in a 96-well plate at 1×10^4/well and treated with each chemical substance for 1 hour, followed by incubating the cells with 25 nM PMA and 1 μM ionomycin for 24 hours. After 24 hours from the treatment with PMA and ionomycin, Tripluck Assay Reagent (manufactured by Toyobo Co., Ltd.) was added, and the amount of luminescence was measured with a Phelios microplate luminometer (manufactured by Atto Corporation). For control, 2H4 cells untreated with a chemical substance were also examined in the same manner. The amount of luminescence of SLG luciferase activity (IL2LA), SLR luciferase activity (GAPLA), and SLO luciferase activity (IFNLA) was measured, and IL-2LA and IFNLA were each normalized by GAPLA and determined to be nIL2LA and nIFNLA, respectively. Thereafter, for the concentration of each chemical substance, “% suppression” and “Inh-GAPLA” were determined according to the following formulas (1) and (2), and the chemical substances were evaluated by using their minimum value (Min % suppression, Min Inh-GAPLA).
In the evaluation, for control, PMA/ionomycin-treated 2H4 cells and PMA/ionomycin-untreated 2H4 cells were also measured for nIL2LA.
as §2

Row | Structure (SMILES) | Evaluation of Combination (2H4 cells [1]) | IL-2 Luc Assay (2H4 cells [2]) | IL-2 Luc LTT (2H4 cells [3]) | determination by the IL-2 Luc assay alone (in words) (2H4 cells [2]) | determination in IL-2 Luc LTT (in words) (2H4 cells [3])
1 | Nc1ccn([C@@H]2O[C@H](CO)[C@@H](O)C2(F)F)c(=O)n1 [Gemcitabine hydrochloride] | Pos | N (−35<Min % suppression <35: No Effect (denoted as “N”; determined to not affect immunity)) | NLCT |  | 
2 | NNC(=O)c1ccncc1 [Isoniazid] | Neg | N (−35<Min % suppression <35: No Effect (denoted as “N”; determined to not affect immunity)) | I (−35<Min % suppression <35 and 0.7≤Min Inh-GAPLA: Inconclusive (denoted as “I”; possibly not measurable due to low water solubility)) |  | 
3 | O=C([O-])[O-].[Li+].[Li+] [Lithium carbonate] | Neg | N (−35<Min % suppression <35: No Effect (denoted as “N”; determined to not affect immunity)) | I (−35<Min % suppression <35 and 0.7≤Min Inh-GAPLA: Inconclusive (denoted as “I”; possibly not measurable due to low water solubility)) |  | 
4 | OC[C@@H](O)[C@@H](O)[C@H](O)[C@H](O)CO [Mannitol] | Neg | N (−35<Min % suppression <35: No Effect (denoted as “N”; determined to not affect immunity)) | I (−35<Min % suppression <35 and 0.7≤Min Inh-GAPLA: Inconclusive (denoted as “I”; possibly not measurable due to low water solubility)) |  | 
5 | CN(C)c1ccc(O)c2c1C[C@H]1C[C@H]3[C@H](N(C)C)C(O)=C(C(N)=O)C(=O)[C@@]3(O)C(O)=C1C2=O [Minocycline (MC), Minocycline] | Pos | S (Min %; suppression ≥35: Suppression (denoted as “S”; determined to have immunosuppressive action)) | NLCT |  | 
6 | NC(=O)c1cccnc1 [Nicotinamide (NA), Nicotinamide] | Pos | A (Min suppression ≤−35: Augmentation (denoted as “A”; determined to have immunoaugmenting action)) | LCT (Min % suppression ≤−35 and Min Inh-GAPLA <0.7: Leukocyte toxic (denoted as “LCT”; determined to have cell growth inhibition action and/or metabolic activity inhibition action)) |  | 
7 | CC[C@H](C)C(=O)O[C@H]1C[C@H](O)C=C2C=C[C@H](C)[C@H](CC[C@@H](O)C[C@@H](O)CC(=O)O)[C@H]21 [Pravastatin] | Neg | N (−35<Min % suppression <35: No Effect (denoted as “N”; determined to not affect immunity)) | I (−35<Min % suppression <35 and 0.7≤Min Inh-GAPLA: Inconclusive (denoted as “I”; possibly not measurable due to low water solubility)) |  | 
8 | CO[C@H]1C[C@@H]2CC[C@@H](C)[C@@](O)(O2)C(=O)C(=O)N2CCCC[C@H]2C(=O)O[C@H]([C@H](C)C[C@@H]2CC[C@@H](O)[C@H](OC)C2)CC(=O)[C@H](C)/C=C(\C)[C@@H](O)[C@@H](OC)C(=O)[C@H](C)C[C@H](C)/C=C/C=C/C=C/1C [Rapamycin (RPM), Rapamycin] | Pos | N (−35<Min % suppression <35: No Effect (denoted as “N”; determined to not affect immunity)) | LCT (Min % suppression ≤−35 and Min Inh-GAPLA <0.7: Leukocyte toxic (denoted as “LCT”; determined to have cell growth inhibition action and/or metabolic activity inhibition action)) |  | inhibit cell growth and/or metabolic activity
9 | Cc1cn([C@H]2C[C@H](N=[N+]=[N-])[C@@H](CO)O2)c(=O)[nH]c1=O [Retrovir] | Pos | A (Min suppression ≤−35: Augmentation (denoted as “A”; determined to have immunoaugmenting action)) | NLCT |  | 

Further lines, with some results ahead:

Row | Evaluation of Combination (2H4 cells [1]) | Structure (SMILES) | IL-2 Luc Assay (2H4 cells [2]) | IL-2 Luc LTT (2H4 cells [3]) | determination by the IL-2 Luc assay alone (in words) (2H4 cells [2]) | determination in IL-2 Luc LTT (in words) (2H4 cells [3])
10 | Pos | CS(=O)(=O)Nc1cc2occ(NC=O)c(=O)c2cc1Oc1ccccc1 [Igratimod] | S (Min %; suppression ≥35: Suppression (denoted as “S”; determined to have immunosuppressive action)) | NLCT |  | 
11 | Pos | Cc1c(OCC(F)(F)F)ccnc1C[S+]([O-])c1nc2ccccc2[nH]1 (centres unmarked) [Lansoprazole] | S (Min %; suppression ≥35: Suppression (denoted as “S”; determined to have immunosuppressive action)) | NLCT |  | 
12 | Pos | Cc1oncc1C(=O)Nc1ccc(C(F)(F)F)cc1 [Leflunomide] | S (Min %; suppression ≥35: Suppression (denoted as “S”; determined to have immunosuppressive action)) | NLCT |  | 
13 | Neg | CN(Cc1cnc2nc(N)nc(N)c2n1)c1ccc(C(=O)N[C@@H](CCC(=O)O)C(=O)O)cc1 [Methotrexate (MTX), Methotrexate] | N (−35<Min % suppression <35: No Effect (denoted as “N”; determined to not affect immunity)) | NLCT |  | 
14 | Pos | NC(=O)c1ncn([C@@H]2O[C@H](CO)[C@@H](O)[C@H]2O)c1O [Mizoribine (MZR), Mizoribine] | N (−35<Min % suppression <35: No Effect (denoted as “N”; determined to not affect immunity)) | LCT (Min % suppression ≤−35 and Min Inh-GAPLA <0.7: Leukocyte toxic (denoted as “LCT”; determined to have cell growth inhibition action and/or metabolic activity inhibition action)) | determined to not have imnunosuppressive action | inhibit cell growth and/or metabolic activity
15 | Pos | COc1c(C)c2c(c(O)c1C/C=C(\C)CCC(=O)O)C(=O)OC2 [Mycophenolic acid (MPA), Mycophenolic acid] | A (Min suppression ≤−35: Augmentation (denoted as “A”; determined to have immunoaugmenting action)) | LCT (Min % suppression ≤−35 and Min Inh-GAPLA <0.7: Leukocyte toxic (denoted as “LCT”; determined to have cell growth inhibition action and/or metabolic activity inhibition action)) | determined to not have imnunosuppressive action | inhibit cell growth and/or metabolic activity
16 | Pos | CC(=O)O[C@H]1C(=O)[C@@]2(C)[C@H]([C@H](OC(=O)c3ccccc3)[C@]3(O)C[C@H](OC(=O)[C@H](O)[C@@H](NC(=O)c4ccccc4)c4ccccc4)C(C)=C1C3(C)C)[C@]1(OC(C)=O)CO[C@@H]1C[C@@H]2O [Paclitaxel] | S (Min %; suppression ≥35: Suppression (denoted as “S”; determined to have immunosuppressive action)) | LCT (Min % suppression ≤−35 and Min Inh-GAPLA <0.7: Leukocyte toxic (denoted as “LCT”; determined to have cell growth inhibition action and/or metabolic activity inhibition action)) |  | 
17 | Pos | Cc1ccc(=O)n(-c2ccccc2)c1 [Pirfenidone] | S (Min %; suppression ≥35: Suppression (denoted as “S”; determined to have immunosuppressive action)) | I (−35<Min % suppression <35 and 0.7≤Min Inh-GAPLA: Inconclusive (denoted as “I”; possibly not measurable due to low water solubility)) |  | 
